Test results published in patent publication EP4603105A1, “PHARMACEUTICAL COMPOSITION CONTAINING CYCLIC COMPOUND HAVING SELECTIVE KRAS INHIBITORY EFFECT AGAINST HRAS AND NRAS” (CHUGAI SEIYAKU KABUSHIKI KAISHA, priority 2022, dated 2024).
Like-named read-outs stand apart in the source and are kept apart here. Where a SMILES comes first, the peptide text is derived from it. Bridges are numbered along the chain shown (N, C = ends). [ ]: non-standard residue; d: D form. The star is where a group is joined. hPhe(3,5-F2-4-CF3) = N[C@@H](CCc1cc(F)c(C(F)(F)F)c(F)c1)C(=O)O; hPhe(3-Cl-4-CF3) = N[C@@H](CCc1ccc(C(F)(F)F)c(Cl)c1)C(=O)O; NPrPhe(4-CF3) = CCCN[C@@H](Cc1ccc(C(F)(F)F)cc1)C(=O)O; NMePhe(4-Me) = CN[C@@H](Cc1ccc(C)cc1)C(=O)O; NMeGly(cPent) = CN[C@H](C(=O)O)C1CCCC1; NMeD = CN[C@@H](CC(=O)O)C(=O)O; NMeL = CN[C@@H](CC(C)C)C(=O)O; αMeS = C[C@](N)(CO)C(=O)O; Morpholide = C1CN(*)CCO1; NMeA = CN[C@@H](C)C(=O)O; Ac5c = NC1(C(=O)O)CCCC1; Aze = O=C(O)[C@@H]1CCN1; NEtG = CCNCC(=O)O; Sar = CNCC(=O)O

Columns and labels:
[1] = biological target: GDP-bound NRAS wild-type protein (Homo sapiens, UniProt P01111); assay: Binding to NRAS by surface plasmon resonance (SPR), KD and KD ratio to KRAS
GDP-bound NRAS wild-type protein, sequence (P01111 whole entry): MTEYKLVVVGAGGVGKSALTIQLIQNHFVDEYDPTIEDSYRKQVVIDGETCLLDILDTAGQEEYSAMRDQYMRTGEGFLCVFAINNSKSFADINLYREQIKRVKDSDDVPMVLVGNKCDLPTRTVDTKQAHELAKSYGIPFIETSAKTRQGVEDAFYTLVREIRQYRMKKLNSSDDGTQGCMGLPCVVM
How it was run: (§1)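 Running buffer contained 10 µM GDP and 10 mM MgCl2 to keep RAS in the GDP state, with 4% DMSO at pH 7.4. Compounds were flowed at 100 µL/min in 75 s steps of rising concentration over captured biotin-Avi RAS at 30°C. Sensorgrams were fitted 1:1 for KD.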

[2] = test system: human lung cancer strain NCI-H441; type: cell-based
How it was run: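 Step one: dispense the test compound in serial DMSO dilutions. Step three: add the reagent and measure […].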

[3] = biological target: HRAS wild-type protein (Homo sapiens, UniProt P01112); assay: Binding to HRAS by surface plasmon resonance (SPR), KD and KD ratio to KRAS
HRAS wild-type protein, sequence (P01112 whole entry): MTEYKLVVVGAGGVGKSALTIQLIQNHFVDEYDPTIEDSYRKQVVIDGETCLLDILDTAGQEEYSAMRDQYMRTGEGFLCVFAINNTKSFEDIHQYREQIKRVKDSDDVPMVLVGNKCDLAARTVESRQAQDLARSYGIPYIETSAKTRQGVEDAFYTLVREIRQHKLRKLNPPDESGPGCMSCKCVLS
How it was run: as §1

[4] = ratio of the KD value with respect to GDP-bound NRAS wild-type protein to the KD value with respect to KRAS
[5] = ratio of the KD value with respect to HRAS wild-type protein to the KD value with respect to KRAS
[6] = ratio of KD value for GDP-bound NRAS wild-type protein to KD value for KRAS (SPR)
[7] = ratio of KD value for HRAS wild-type protein to KD value for KRAS (SPR)
[8] = ratio of KD for GDP-bound NRAS wild-type protein to KD for KRAS
[9] = ratio of KD for HRAS wild-type protein to KD for KRAS

Row | IC50 [2] | IC50 ([2]; NCI-H441 cells, 4 days, CellTiter-Glo, read-out: NCl-H441 IC50) | SMILES | NRAS /KRAS [1, 4] | HRAS /KRAS [3, 5] | NRAS /KRAS [1, 6] | HRAS /KRAS [3, 7] | NRAS /KRAS [1, 8] | HRAS /KRAS [3, 9]
1 | 4.8 nM |  | C#CCN1CC(=O)N(C)[C@H]2C/C=C\CCN(C2=O)[C@@H](Cc2ccc(C(F)(F)F)cc2)C(=O)N(C)CC(=O)N[C@@H](CCc2cc(F)c(C(F)(F)F)c(F)c2)C(=O)N2C[C@H](OCC)C[C@H]2C(=O)NC2(CC(C)(C)C2)C(=O)N(C)[C@@H](C2CCCC2)C(=O)N(C)[C@H](C(=O)N(C)C)CC(=O)N(C)[C@@H](CC)C(=O)N[C@@H]([C@@H](C)CC)C1=O [PP2087] | A (a compound having 10 or more and less than 20 is denoted as A) | A (a compound having 10 or more and less than 20 is denoted as A) |  |  |  | 
2 | 14.8 nM |  | CC[C@H](C)[C@@H]1NC(=O)[C@H](C)N(C)C(=O)C[C@@H](C(=O)N(C)C)N(C)C(=O)[C@H](C2CCCC2)N(C)C(=O)C2(CCC2)NC(=O)[C@@H]2CC(F)(F)CN2C(=O)[C@H](CCc2cc(F)c(C(F)(F)F)c(F)c2)NC(=O)CN(C)C(=O)[C@H](Cc2ccc(C(F)(F)F)cc2)N2CCCCC[C@@H](C2=O)N(C)C(=O)CN(C)C1=O [PP0473] | C (A compound having a KD ratio of 0.1 or more and less than 3 is denoted as C) | C (A compound having a KD ratio of 0.1 or more and less than 3 is denoted as C) |  |  |  | 
3 | 62.1 nM |  | CC[C@H](C)[C@@H]1NC(=O)[C@H](CC(C)C)N(C)C(=O)C[C@@H](C(=O)N(C)C)N(C)C(=O)[C@H](C2CCCC2)N(C)C(=O)C2(CCCC2)NC(=O)[C@@H]2CCCN2C(=O)[C@H](CCc2cc(F)c(C(F)(F)F)c(F)c2)NC(=O)CN(C)C(=O)[C@H](Cc2ccc(C(F)(F)F)cc2)N2CCCCC[C@@H](C2=O)N(C)C(=O)CN(C)C1=O [PP0507] | B (a compound having 3 or more and less than 10 is denoted as B) | B (a compound having 3 or more and less than 10 is denoted as B) |  |  |  | 
4 | 38 nM |  | CC[C@H](C)[C@@H]1NC(=O)[C@H](CC2CC2)N(C)C(=O)C[C@@H](C(=O)N(C)C)N(C)C(=O)[C@H](C2CCCC2)N(C)C(=O)C2(CC(C)(C)C2)NC(=O)[C@@H]2C[C@@H](C(F)(F)F)CN2C(=O)[C@H](CCc2cc(F)c(C(F)(F)F)c(F)c2)NC(=O)CN(C)C(=O)[C@H](Cc2ccc(C(F)(F)F)cc2)N2CC/C=C\C[C@@H](C2=O)N(C)C(=O)CN(C)C1=O [PP1504] |  |  | A (a compound having 10 or more and less than 20 is denoted as A) | A (a compound having 10 or more and less than 20 is denoted as A) |  | 
5 | 734 nM |  | CCC(CC)[C@@H]1NC(=O)[C@H](CC(C)C)N(C)C(=O)C[C@@H](C(=O)N2CCOCC2)N(C)C(=O)[C@H](C2CCCC2)N(C)C(=O)C2(CCCC2)NC(=O)[C@@H]2CCCN2C(=O)[C@H](CCc2cc(F)c(C(F)(F)F)c(F)c2)NC(=O)CN(C)C(=O)[C@H](Cc2ccc(C(F)(F)F)cc2)N2CCCCC[C@@H](C2=O)N(C)C(=O)CN(C)C1=O [PP0523] | A (a compound having 10 or more and less than 20 is denoted as A) | B (a compound having 3 or more and less than 10 is denoted as B) |  |  |  | 
6 | 61.5 nM |  | CCCN1C(=O)[C@@H]2CCN2C(=O)CN(C)C(=O)[C@H]([C@@H](C)CC)NC(=O)[C@H](CC(C)C)N(C)C(=O)C[C@@H](C(=O)N2CCOCC2)N(C)C(=O)[C@H](C2CCCC2)N(C)C(=O)[C@](C)(COC)NC(=O)[C@@H]2CCCN2C(=O)[C@H](CCc2cc(F)c(C(F)(F)F)c(F)c2)NC(=O)CN(C)C(=O)[C@@H]1Cc1ccc(C(F)(F)F)cc1 [PP0798] ([NMeL]I[Sar][Aze][NPrPhe(4-CF3)][Sar][hPhe(3,5-F2-4-CF3)]P[αMeS](Me)[NMeGly(cPent)][NMeD]-Morpholide; lactam N-11) |  |  |  |  | C (A compound having a KD ratio of 0.1 or more and less than 3 is denoted as C) | B (a compound having 3 or more and less than 10 is denoted as B)
7 |  | 3 nM | CCO[C@@H]1C[C@H]2C(=O)NC3(CC(C)(C)C3)C(=O)N(C)[C@@H](C3CCCC3)C(=O)N(C)[C@H](C(=O)N(C)C)CC(=O)N(C)[C@@H](CC(C)C)C(=O)N[C@@H]([C@@H](C)CC)C(=O)N(C)CC(=O)N(C)[C@H]3C/C=C\CCN(C3=O)[C@@H](Cc3ccc(C(C)(F)F)cc3)C(=O)N(C)CC(=O)N[C@@H](CCc3ccc(C(F)(F)F)c(OC)c3)C(=O)N2C1 [PP2690] |  |  |  |  | AA (a compound having 20 or more is denoted as AA) | A (a compound having 10 or more and less than 20 is denoted as A)
8 | 6.3 nM |  | CC[C@H](C)[C@@H]1NC(=O)[C@H](CC(C)C)N(C)C(=O)C[C@@H](C(=O)N2CCOCC2)N(C)C(=O)[C@H](C2CCCC2)N(C)C(=O)C2(CCCC2)NC(=O)[C@@H]2CCCN2C(=O)[C@H](CCc2ccc(C(F)(F)F)c(Cl)c2)NC(=O)CN(C)C(=O)[C@H](Cc2ccc(C)cc2)N(C)C(=O)[C@@H]2CCN2C(=O)[C@H](C)N(C)C1=O [PP0001] ([NMeL]I[NMeA][Aze][NMePhe(4-Me)][Sar][hPhe(3-Cl-4-CF3)]P[Ac5c][NMeGly(cPent)][NMeD]-Morpholide; lactam N-11) |  |  |  |  | C (A compound having a KD ratio of 0.1 or more and less than 3 is denoted as C) | C (A compound having a KD ratio of 0.1 or more and less than 3 is denoted as C)
9 | 125 nM |  | CC[C@H](C)[C@@H]1NC(=O)[C@H](CC)N(C)C(=O)C[C@@H](C(=O)N(C)C)N(C)C(=O)[C@H](C2CCCC2)N(C)C(=O)C2(CCC2)NC(=O)[C@@H]2CCCCN2C(=O)[C@H](CCc2cc(F)c(C(F)(F)F)c(F)c2)NC(=O)CN(C)C(=O)[C@H](Cc2ccc(C(F)(F)F)cc2)N2CCCCC[C@@H](C2=O)N(C)C(=O)CN(C)C1=O [PP0655] | B (a compound having 3 or more and less than 10 is denoted as B) | B (a compound having 3 or more and less than 10 is denoted as B) |  |  |  | 
10 | 2.7 nM |  | CC[C@H](C)[C@@H]1NC(=O)[C@H](CC(C)C)N(C)C(=O)C[C@@H](C(=O)N(C)C)N(C)C(=O)[C@H](C2CCCC2)N(C)C(=O)C2(CC(C)(C)C2)NC(=O)[C@@H]2CC(F)(F)CN2C(=O)[C@H](CCc2cc(F)c(C(F)(F)F)c(F)c2)NC(=O)CN(C)C(=O)[C@H](Cc2ccc(C(F)(F)F)cc2)N2CC/C=C\C[C@@H](C2=O)N(C)C(=O)CN(C)C1=O [PP1715] |  |  | AA (a compound having 20 or more is denoted as AA) | A (a compound having 10 or more and less than 20 is denoted as A) |  | 
11 | 45 nM |  | CCO[C@@H]1C[C@H]2C(=O)NC3(CCC3)C(=O)N(C)[C@@H](C3CCCC3)C(=O)N(CCc3ccccc3)[C@H](C(=O)N(C)C)CC(=O)N(C)[C@@H](CC)C(=O)N[C@@H]([C@@H](C)CC)C(=O)N(C)CC(=O)N(C)[C@H]3CCCCN(C3=O)[C@@H](Cc3ccc(C(F)(F)F)cc3)C(=O)N(C)CC(=O)N[C@@H](CCc3cc(F)c(C(F)(F)F)c(F)c3)C(=O)N2C1 [PP0647] | C (A compound having a KD ratio of 0.1 or more and less than 3 is denoted as C) | B (a compound having 3 or more and less than 10 is denoted as B) |  |  |  | 
12 | 2.4 nM |  | CC[C@H](C)[C@@H]1NC(=O)[C@H](CC(C)C)N(C)C(=O)C[C@@H](C(=O)N(C)C)N(C)C(=O)[C@H](C2CCCC2)N(C)C(=O)C2(CCC2)NC(=O)[C@@H]2CC(F)(F)CN2C(=O)[C@H](CCc2cc(F)c(C(F)(F)F)c(F)c2)NC(=O)CN(C)C(=O)[C@H](Cc2ccc(C(F)(F)F)cc2)N2CCCC[C@@H](C2=O)N(C)C(=O)CN(C)C1=O [PP0577] | C (A compound having a KD ratio of 0.1 or more and less than 3 is denoted as C) | C (A compound having a KD ratio of 0.1 or more and less than 3 is denoted as C) |  |  |  | 
13 | 74 nM |  | CCCN1C(=O)CN(C)C(=O)CNC(=O)[C@H]([C@@H](C)CC)NC(=O)[C@H](CC(C)C)N(C)C(=O)C[C@@H](C(=O)N2CCOCC2)N(C)C(=O)[C@H](C2CCCC2)N(C)C(=O)C2(CCCC2)NC(=O)[C@@H]2CCCN2C(=O)[C@H](CCc2ccc(C(F)(F)F)c(Cl)c2)NC(=O)CN(CC)C(=O)[C@@H]1Cc1ccc(C(F)(F)F)cc1 [PP1969] ([NMeL]IG[Sar][NPrPhe(4-CF3)][NEtG][hPhe(3-Cl-4-CF3)]P[Ac5c][NMeGly(cPent)][NMeD]-Morpholide; lactam N-11) | B (a compound having 3 or more and less than 10 is denoted as B) | C (A compound having a KD ratio of 0.1 or more and less than 3 is denoted as C) |  |  |  | 
14 | 52.5 nM |  | CCO[C@@H]1C[C@H]2C(=O)NC3(CCC3)C(=O)N(C)[C@@H](C3CCCC3)C(=O)N(C)[C@H](C(=O)N3CCOCC3)CC(=O)N(C)[C@@H](COC)C(=O)N[C@@H]([C@@H](C)CC)C(=O)NCC(=O)N(C)[C@H]3CCCCCN(C3=O)[C@@H](Cc3ccc(C(F)(F)F)cc3)C(=O)N(C)CC(=O)N[C@@H](CCc3cc(F)c(C(F)(F)F)c(F)c3)C(=O)N2C1 [PP0858] |  |  |  |  | B (a compound having 3 or more and less than 10 is denoted as B) | B (a compound having 3 or more and less than 10 is denoted as B)
15 | 42.4 nM |  | CCO[C@@H]1C[C@H]2C(=O)NC3(CCC3)C(=O)N(C)[C@@H](C3CCCC3)C(=O)N(C)[C@H](C(=O)N(C)C)CC(=O)N(C)[C@@H](Cc3ccc(F)cc3)C(=O)N[C@@H]([C@@H](C)CC)C(=O)N(C)CC(=O)N(C)[C@H]3CCCCCN(C3=O)[C@@H](Cc3ccc(C(F)(F)F)cc3)C(=O)N(C)CC(=O)N[C@@H](CCc3cc(F)c(C(F)(F)F)c(F)c3)C(=O)N2C1 [PP0936] |  |  |  |  | B (a compound having 3 or more and less than 10 is denoted as B) | B (a compound having 3 or more and less than 10 is denoted as B)
